The text below walks through data of the METLIN SMRT retention time set (Domingo-Almenara et al. 2019).

SMILES strings stand for the structures.

The series in a line: gradient 5% acetonitrile 3 min, to 50% in 2 min, to 85% in 15 min, held 3 min, 100 µL/min. The following applies: column: Zorbax Extend-C18 2.1 x 50 mm; eluents: water / acetonitrile, 0.1% formic acid. A digest of the protocol: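 Retention time was recorded from adduct peaks, which were picked computationally and each inspected manually. Pure standards ran in mixtures of ~100 molecules on HPLC coupled to a quadrupole time-of-flight mass spectrometer, in positive and negative ionization mode, through a Zorbax Extend-C18 column (2.1 × 50 mm, 1.8 μm) at 100 μL/min. Eluents were water and acetonitrile, each with 0.1% formic acid.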
Regarding `COc1ccc(S(=O)(=O)N2CCC(n3cnnc3-c3ccccc3)CC2)cc1`, the RP-LC retention time amounted to 783 s. Consider `COCCc1noc(-c2cnc3nc(C)ccc3c2Nc2cccc(Cl)c2)n1`, for which the RP-LC retention time came to 763 s. `Cn1cnc2ccc(-c3noc(-c4ccc(F)cc4)n3)cc21` had an RP-LC retention time of 739 s. With `O=C(NCc1ccc(F)cc1)N1CCC(c2noc(-c3ccccn3)n2)C1` (stereo unspecified) the figure was 813 s; with `COCc1cc(=O)n(CC(=O)Nc2ccc(F)c(Cl)c2)c(N2CCOCC2)n1`, 917 s.

`COc1ccc(NC(=O)Cn2nc3c4sc(N(C)C)nc4ncn3c2=O)cc1` returned an RP-LC retention time of 1410 s. The figure for `O=[N+]([O-])c1ccc(NN=C(c2ccccc2)c2ccccc2)nc1` is 1300 s; for `Cc1ccc(-c2ncccc2CNC(=O)c2ccco2)cc1` it is 608 s. Consider `NC(=O)C1CCN(Cc2nc(Cn3ccn4nc(-c5ccccc5)cc4c3=O)no2)CC1`, for which the RP-LC retention time was found to be 618 s. `CC(NC(=O)C(=O)N1CCOCC1)C(c1cccs1)N1CCN(Cc2ccccc2)CC1` (stereo unspecified) gave an RP-LC retention time of 600 s.

With `CCc1ccc(S(=O)(=O)NCc2c(-c3ccccc3)nc3sc(CC)nn23)cc1`, the RP-LC retention time was 1020 s. With `CN(C)C(CNC(=O)Cc1cccs1)c1ccccc1Cl` (stereo unspecified) the figure was 550 s; with `CCCc1ccc(S(=O)(=O)N2CCCC2c2nc(-c3cccc(C)c3)no2)cc1` (stereo unspecified), 1330 s. With `COC(=O)c1ccc(Cl)cc1NC(=O)N1CCN(C)c2ccccc21` the figure was 1240 s. With `CCCCN(CCCC)CCCOC(=O)c1ccc(N)cc1` the figure was 738 s; with `CN1CC2(CCCC2)N(C(=O)COc2ccc(F)cc2)CC1=O`, 740 s. `CN1C(=O)COc2cc(-c3noc(C(=O)N4CCCC4)n3)ccc21` returned an RP-LC retention time of 746 s. `NC(=O)Cc1ccc(NS(=O)(=O)/C=C/c2ccccc2)cc1` gave an RP-LC retention time of 650 s.

`CSc1cccc(NC(=O)C2CCN(C(=O)C3Sc4ccccc4NC3=O)CC2)c1` (stereo unspecified) returned an RP-LC retention time of 814 s. The figure for `O=C(CCc1ccccc1)N1CCC(c2noc(-c3cnccn3)n2)C1` (stereo unspecified) is 735 s; for `CC(C)n1cc(C2=CCN(S(=O)(=O)Cc3cccc(Cl)c3)CC2)c2cccnc21` it is 1130 s. The figure for `COc1ccc(-c2nc(N3CCOCC3)c3sc(CN(C)c4ncc(C(=O)NO)cn4)cc3n2)cn1` is 674 s. With `CCOc1ccccc1NC(=O)N1CCC2(CC1)NC(=O)c1ccc(Cl)cc1N2C` the figure was 858 s. `CCn1cc(C)c(C(=O)O)c1CC(=O)Nc1cc(F)ccc1F` returned an RP-LC retention time of 859 s. The figure for `CCCCn1cc(S(=O)(=O)Nc2ccc(Cl)cc2F)c2cccnc21` is 1020 s. As to `Cc1cc(=O)n(CC(=O)N2CCc3ccccc32)c(N2CCOCC2)n1`, the RP-LC retention time amounted to 667 s. With `COc1ccccc1NC(=O)C1CCCN(c2nc3ccccc3nc2OC)C1` (stereo unspecified) the figure was 1160 s; with `Cc1cc(C)cc(N2C(=O)CN(S(C)(=O)=O)CC2(C)C(=O)NCc2ccccc2)c1` (stereo unspecified), 851 s; with `O=C(CN1CC=C(c2cnn(-c3ccccc3)c2)CC1)Nc1ccc2c(c1)OCCO2`, 675 s.

Turning to `COc1ccc(N2C(=O)C3(CCCCC3)C2C(=O)N(C)C)cc1` (stereo unspecified), the RP-LC retention time is 750 s. With `CCCCN(C)C(=O)C1CCN(c2nccc(C)n2)CC1` the figure was 674 s; with `CCc1nc2cc(N3CCC(C(=O)N4CCC5(CC4)OCCO5)CC3)cnc2nc1CC`, 723 s; with `COc1cc(C[C@H](C)N)c(OC)cc1I`, 705 s.

Turning to `Cc1nn(-c2ccc(C(=O)NCc3ccco3)cc2)cc1NC(=O)C(C)C`, the RP-LC retention time turned out to be 722 s. Compound `CCn1cc(C(=O)NCCCOC(C)C)c(S(=O)(=O)N2CCN(c3cccc(Cl)c3)CC2)n1` registered an RP-LC retention time of 1060 s.

In turn, `COc1ccc(-c2nc(NC3CCCCC3)c3ccccc3n2)cc1` displayed an RP-LC retention time of 856 s. `COc1ccc(NC(=O)Cn2ccc3sccc3c2=O)cc1` came in with an RP-LC retention time of 706 s. The compound `O=C(NC1CCN(c2cc(-c3cccs3)[nH]n2)C1)c1ccc(F)c(F)c1` (stereo unspecified) displayed an RP-LC retention time of 752 s. In turn, `O=S(=O)(c1cc(F)ccc1F)N1CCc2nc(-c3ccc(Cl)cc3)ncc2C1` gave an RP-LC retention time of 1210 s. With `COc1ccc(NC(=O)CN2CCC(c3nc(-c4cccs4)no3)CC2)cc1` the figure was 670 s; with `COc1ccc(-c2nc(C)c3c(n2)N(C(C)C)C(=O)C3)cc1`, 929 s. With `Cc1cc(C)c(S(=O)(=O)N2CCCC2c2nc(-c3ccc(Cl)cc3)no2)cc1C` (stereo unspecified) the figure was 1340 s; with `O=C(Nc1cccc(F)c1)Nc1cccc(-c2ccc(N3CCOCC3)nn2)c1`, 697 s.

Regarding `Cc1ccnc(N2CCCC(C(=O)NCc3ccc(C)o3)C2)n1` (stereo unspecified), the RP-LC retention time is 694 s. With `CC(=O)c1ccc(NC(=O)Cn2c(-c3ccc(F)cc3)nc(C)cc2=O)cc1` the figure was 953 s. With `Cn1cc(-c2ccncc2)c(-c2ccc(OCc3ccc4ccccc4n3)cc2)n1`, the RP-LC retention time came out at 717 s. With `CCn1c(C2CCCN(C(=O)NC(C)C)C2)nn(C)c1=O` (stereo unspecified) the figure was 613 s; with `CCCc1ccc(S(=O)(=O)N2CCC(c3noc(-c4cccc(OC)c4)n3)CC2)cc1`, 1280 s; with `CSc1ccc(-c2noc(Cn3c(=O)n(-c4ccccc4F)c(=O)c4sccc43)n2)cc1`, 1040 s.

`Cc1cccc(-c2noc(Cn3ccn(-c4ccccc4)c(=O)c3=O)n2)c1` had an RP-LC retention time of 838 s. The figure for `CCc1cc(N2CCN(C(=O)c3ccc(F)cc3)CC2)nc2nncn12` is 548 s; for `Fc1ccccc1-c1noc(-c2ncn3c2COC(c2ccccc2Cl)C3)n1` (stereo unspecified) it is 1080 s; for `CCn1cc(S(=O)(=O)Nc2cccc(F)c2)c2cccnc21` it is 817 s. The compound `COc1ccc2c(c1)C1(CCN(S(=O)(=O)c3ccc(Br)cc3)C1)C(=O)N2C` (stereo unspecified) showed an RP-LC retention time of 986 s. Regarding `O=S(=O)(Nc1ccc(F)cc1)c1cccc(-c2nc(-c3ccccc3)no2)c1`, the RP-LC retention time came out at 1120 s. The figure for `Cc1ccc(S(=O)(=O)c2nc(S(C)(=O)=O)sc2NCc2ccccn2)cc1` is 763 s; for `O=C(Nc1ccc2ncnc(N3CCCCC3)c2c1)c1cccs1` it is 670 s. The figure for `Cc1ccc(NC(=O)C(C)C2CCN(C(=O)Nc3ccc(F)cc3)CC2)cc1Cl` (stereo unspecified) is 974 s; for `CCSc1nnc(-c2nn(C)c3c2CN(C(=O)c2ccccc2C)CC3)n1C` it is 734 s.

On to `CCc1ccc(NC(=O)N2CCc3nc(-c4ccccc4)ncc3C2)cc1`, for which the RP-LC retention time is 1010 s. The figure for `CCn1c(=O)c(Nc2ccc(C)c(Cl)c2)nc2ccncc21` is 649 s; for `Cc1ccn2c(NC(=O)COc3ccc(Cl)cc3)c(-c3ccccc3)nc2c1` it is 714 s; for `O=C(CCc1c[nH]c2ccccc12)NC1CCN(c2ccc(=O)[nH]n2)C1` (stereo unspecified) it is 595 s.

With `Cc1ccnn1-c1ccc(SCC(=O)Nc2ccc(F)cc2F)nn1`, the RP-LC retention time turned out to be 893 s. On to `COCCNc1c(-c2ccccc2)nc2sc(C(=O)N3CCN(C)CC3)c(C)n12`, for which the RP-LC retention time was found to be 601 s.

As to `Cc1sc2nc(SCc3ccc(C(=O)NCCO)cc3)[nH]c(=O)c2c1C`, the RP-LC retention time is 647 s.

Turning to `Cc1noc(C)c1C(=O)N1CC(F)(F)C[C@H]1c1nc(C2CC2)no1`, the RP-LC retention time came out at 806 s. In turn, `Cc1cc(C(=O)N2CCCCCC2c2nnc(C)o2)on1` (stereo unspecified) returned an RP-LC retention time of 669 s. With `CC(C)n1cnc(S(=O)(=O)N2CCC(C(=O)N3CCc4ccccc43)CC2)c1`, the RP-LC retention time amounted to 769 s.

For the compound `O=C(NCC1CCN(C(=O)c2cc3ccccc3o2)CC1)C(=O)NCC1CCCO1` (stereo unspecified), the RP-LC retention time was 691 s. With `Cc1ccc(Nc2cc(N3CCC(C(=O)N4CCC5(CC4)OCCO5)CC3)ncn2)cc1` the figure was 645 s; with `Cc1c(-c2cccc(NC(=O)C3CCCCC3)c2)nc2ncccn12`, 663 s; with `CSc1ccc(CNC(=O)c2[nH]c3cc(C)sc3c2CN(C)C)cc1`, 689 s.

`O=c1ccnc(Nc2ccc(Cl)cc2)[nH]1`: the RP-LC retention time is 701 s.

With `CNC(=O)[C@@H]1C[C@H](Oc2ccccc2)CN1C(=O)c1ccco1`, the RP-LC retention time was found to be 670 s.

`Cc1ccc(-c2nnc(Cc3nc(-c4ccccc4)no3)o2)cc1F` yielded an RP-LC retention time of 1050 s. `Cc1cc(C)cc(S(=O)(=O)N2CCC(C(=O)NCCc3csc(-c4ccccc4)n3)CC2)c1`: the RP-LC retention time amounted to 1020 s.

Take `CCCCN1C(=O)C(CC(=O)NCC(C)C)Sc2ncccc21` (stereo unspecified): the RP-LC retention time is 784 s. The figure for `Cc1sc2ccn(Cc3ccc(F)cc3)c(=O)c2c1C(=O)N1CCCC1` is 764 s.

Take `CC(C)NC(=O)N(C)Cc1ccsc1`: the RP-LC retention time was 730 s.

The compound `COc1ccc(CN2CCN(C(c3ccc(F)cc3)c3ccc(F)cc3)CC2)c(OC)c1OC` gave an RP-LC retention time of 857 s.
